Key:
Assay in all cases: relative viability (nuclei count vs DMSO), 5 days (fraction); higher = more cells survive
Venetoclax + Dasatinib = compound: CC1(C)CCC(CN2CCN(c3ccc(C(=O)NS(=O)(=O)c4ccc(NCC5CCOCC5)c([N+](=O)[O-])c4)c(Oc4cnc5[nH]ccc5c4)c3)CC2)=C(c2ccc(Cl)cc2)C1 [Venetoclax] + Cc1nc(Nc2ncc(C(=O)Nc3c(C)cccc3Cl)s2)cc(N2CCN(CCO)CC2)n1 [Dasatinib] (partner 0.075 µM)
In short: (§1)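 Lung cancer cell lines in 1536-well plates got either a single drug or a fixed anchor-drug dose together with five library-drug doses (not always all listed) in √10 steps, by pin tool, on the day after seeding. Nuclei were counted after 5 days, and relative viability is the treated-to-vehicle ratio of nuclei counts. Values are medians of duplicate plates.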

Selumetinib + Trametinib = compound: Cn1cnc2c(F)c(Nc3ccc(Br)cc3Cl)c(C(=O)NOCCO)cc21 [Selumetinib] + CC(=O)Nc1cccc(-n2c(=O)n(C3CC3)c(=O)c3c(Nc4ccc(I)cc4F)n(C)c(=O)c(C)c32)c1 [Trametinib] (partner 0.02 µM)
In short: as §1

Selumetinib + Foretinib = compound: Cn1cnc2c(F)c(Nc3ccc(Br)cc3Cl)c(C(=O)NOCCO)cc21 [Selumetinib] + COc1cc2c(Oc3ccc(NC(=O)C4(C(=O)Nc5ccc(F)cc5)CC4)cc3F)ccnc2cc1OCCCN1CCOCC1 [Foretinib] (partner 0.25 µM)
In short: as §1

Selumetinib + Pictilisib = compound: Cn1cnc2c(F)c(Nc3ccc(Br)cc3Cl)c(C(=O)NOCCO)cc21 [Selumetinib] + CS(=O)(=O)N1CCN(Cc2cc3nc(-c4cccc5[nH]ncc45)nc(N4CCOCC4)c3s2)CC1 [Pictilisib] (partner 1 µM)
In short: as §1

Cell Line	relative viability (Venetoclax + Dasatinib; first compound 0.01 µM)	relative viability (Venetoclax + Dasatinib; first compound 0.03162 µM)	relative viability (Venetoclax + Dasatinib; first compound 0.1 µM)	relative viability (Venetoclax + Dasatinib; first compound 0.3162 µM)	relative viability (Venetoclax + Dasatinib; first compound 1 µM)	relative viability (Selumetinib + Trametinib; first compound 0.02 µM)	relative viability (Selumetinib + Trametinib; first compound 0.06325 µM)	relative viability (Selumetinib + Trametinib; first compound 0.2 µM)	relative viability (Selumetinib + Trametinib; first compound 0.6325 µM)	relative viability (Selumetinib + Foretinib; first compound 0.02 µM)	relative viability (Selumetinib + Foretinib; first compound 0.06325 µM)	relative viability (Selumetinib + Foretinib; first compound 0.2 µM)	relative viability (Selumetinib + Foretinib; first compound 0.6325 µM)	relative viability (Selumetinib + Pictilisib; first compound 0.02 µM)	relative viability (Selumetinib + Pictilisib; first compound 0.06325 µM)	relative viability (Selumetinib + Pictilisib; first compound 0.2 µM)	relative viability (Selumetinib + Pictilisib; first compound 0.6325 µM)
HCC-78	0.442	0.441	0.409	0.323	0.368	0.785	0.643	0.792	0.698	0.516	0.435	0.401	0.449	0.0694	0.181	0.134	0.216
HOP-62	0.557	0.582	0.616	0.709	0.625	0.372	0.358	0.404	0.332	1.06	1.02	0.807	0.504	0.713	0.407	0.26	0.261
NCI-H1623	0.565	0.595	0.534	0.515	0.508					0.729	0.679	0.614	0.632				
NCI-H3122	0.811	0.757	0.885	0.786	0.817	0.202	0.212	0.199	0.266	0.866	0.774	0.719	0.583	0.396	0.298	0.206	0.211
RERF-LC-KJ	0.62	0.84	0.784	0.779	0.675	0.911	0.858	0.887	0.981	0.87	0.901	0.853	0.819	0.527	0.476	0.44	0.504
NCI-H1703										0.438	0.318	0.369	0.32	0.231	0.193	0.229	0.283
HCC-15	0.607	0.627	0.587	0.645	0.549	0.403	0.426	0.332	0.333	0.777	0.637	0.439	0.293	0.509	0.31	0.25	0.207
NCI-H1666	0.816	0.821	0.838	0.708	0.766	0.867	0.854	0.807	0.845	0.827	0.839	0.791	0.734	0.346	0.22	0.264	0.239
NCI-H1395	0.449	0.406	0.392	0.442	0.409	1.09	0.964	0.932	1.05	0.959	0.978	0.928	0.94	0.598	0.577	0.569	0.639
LCLC-97TM1	0.856	0.888	0.764	0.733	0.802	0.195	0.171	0.201	0.19	0.898	0.818	0.585	0.525	0.212	0.161	0.158	0.125

Source: the supplement of paper PMC10307832
